The target of test [1] is T1, human TLR7 (Homo sapiens, UniProt Q9NYK1).
T1 construct: host or cells: HEK-Blue cells
T1 sequence (Q9NYK1 27-1049): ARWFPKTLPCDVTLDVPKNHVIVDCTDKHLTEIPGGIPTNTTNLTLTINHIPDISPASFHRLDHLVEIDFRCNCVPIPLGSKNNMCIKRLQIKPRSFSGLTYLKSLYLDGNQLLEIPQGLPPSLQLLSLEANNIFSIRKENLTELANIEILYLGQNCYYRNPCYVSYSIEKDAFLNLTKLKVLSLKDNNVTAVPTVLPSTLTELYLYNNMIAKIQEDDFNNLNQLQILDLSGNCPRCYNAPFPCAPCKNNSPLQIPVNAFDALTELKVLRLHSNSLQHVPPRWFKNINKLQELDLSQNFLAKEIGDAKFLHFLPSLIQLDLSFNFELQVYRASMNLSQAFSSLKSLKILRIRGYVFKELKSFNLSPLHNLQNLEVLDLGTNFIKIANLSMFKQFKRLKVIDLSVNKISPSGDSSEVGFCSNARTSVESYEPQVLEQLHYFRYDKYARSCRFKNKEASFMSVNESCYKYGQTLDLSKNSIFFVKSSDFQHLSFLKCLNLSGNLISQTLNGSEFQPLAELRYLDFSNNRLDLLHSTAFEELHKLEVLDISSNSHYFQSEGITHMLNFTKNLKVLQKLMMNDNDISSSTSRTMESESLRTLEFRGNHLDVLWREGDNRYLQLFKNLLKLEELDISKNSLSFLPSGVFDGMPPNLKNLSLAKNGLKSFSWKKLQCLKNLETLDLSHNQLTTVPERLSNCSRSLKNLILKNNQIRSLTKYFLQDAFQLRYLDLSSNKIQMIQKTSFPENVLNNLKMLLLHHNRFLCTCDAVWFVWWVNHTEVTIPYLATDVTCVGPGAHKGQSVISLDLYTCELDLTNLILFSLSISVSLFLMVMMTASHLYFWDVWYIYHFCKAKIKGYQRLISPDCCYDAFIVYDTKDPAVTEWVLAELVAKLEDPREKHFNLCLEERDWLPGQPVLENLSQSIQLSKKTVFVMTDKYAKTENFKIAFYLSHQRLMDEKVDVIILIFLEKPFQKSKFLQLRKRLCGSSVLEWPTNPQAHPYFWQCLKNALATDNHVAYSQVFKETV
The experiment in a line: TLR7 inhibition reporter assay (HEK-Blue cells, SEAP reporter, gardiquimod stimulation). The format is cell-based. The conditions noted are these: HEK-Blue cells overexpressing human TLR7, gardiquimod 7.5 μM. Summed up: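 SEAP readout via HEK-Blue Detection medium after 22 h at 37 °C, 5% CO2 defines inhibition, normalized between agonist-plus-DMSO wells and a reference inhibitor. Compound dose range 0.05 nM–50 μM; TLR7 cells at 15,000/well (gardiquimod), TLR8 at 20,000/well (R848).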

In test [2] the target is T2, human TLR9 (Homo sapiens, UniProt Q9NR96).
T2 construct: host or cells: HEK-Blue cells
T2 sequence (Q9NR96 26-1032): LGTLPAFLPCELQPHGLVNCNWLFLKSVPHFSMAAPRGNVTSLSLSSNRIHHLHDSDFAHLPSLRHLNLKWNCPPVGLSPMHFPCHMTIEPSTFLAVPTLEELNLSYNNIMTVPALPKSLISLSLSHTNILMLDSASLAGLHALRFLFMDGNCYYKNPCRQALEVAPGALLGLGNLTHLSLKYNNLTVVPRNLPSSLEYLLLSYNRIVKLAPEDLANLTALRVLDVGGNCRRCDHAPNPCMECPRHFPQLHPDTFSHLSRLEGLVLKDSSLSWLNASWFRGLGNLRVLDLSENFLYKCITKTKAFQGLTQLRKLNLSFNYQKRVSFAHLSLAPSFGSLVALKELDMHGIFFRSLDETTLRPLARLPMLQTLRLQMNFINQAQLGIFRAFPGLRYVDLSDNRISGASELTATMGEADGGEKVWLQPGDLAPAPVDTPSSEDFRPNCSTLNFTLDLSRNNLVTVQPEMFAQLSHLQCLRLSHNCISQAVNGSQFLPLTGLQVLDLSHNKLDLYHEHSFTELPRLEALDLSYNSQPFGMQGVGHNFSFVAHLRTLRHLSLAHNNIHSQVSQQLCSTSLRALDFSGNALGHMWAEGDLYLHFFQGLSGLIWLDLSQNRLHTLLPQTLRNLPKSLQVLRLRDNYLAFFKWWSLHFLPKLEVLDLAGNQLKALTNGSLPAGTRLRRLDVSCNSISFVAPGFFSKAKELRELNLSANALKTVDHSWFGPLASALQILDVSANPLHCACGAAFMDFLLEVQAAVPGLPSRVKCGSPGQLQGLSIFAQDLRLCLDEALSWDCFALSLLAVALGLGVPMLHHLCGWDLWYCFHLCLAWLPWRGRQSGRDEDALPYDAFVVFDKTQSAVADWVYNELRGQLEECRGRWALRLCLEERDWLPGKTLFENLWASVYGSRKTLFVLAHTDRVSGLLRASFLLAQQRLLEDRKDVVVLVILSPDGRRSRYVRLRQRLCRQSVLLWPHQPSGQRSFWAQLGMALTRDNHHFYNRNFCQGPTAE
Description: TLR9 inhibition reporter assay (HEK-Blue cells, SEAP reporter, ODN2006 stimulation). The format is cell-based. The conditions noted are these: HEK-Blue cells overexpressing human TLR9, ODN2006 5 nM. Summed up: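 HEK-Blue cells overexpressing human TLR7, TLR8 or TLR9 carry a SEAP reporter driven by NF-κB/AP-1 sites. Compounds (0.05 nM–50 μM) were preincubated 30 min at room temperature, then cells were stimulated with gardiquimod 7.5 μM (TLR7), R848 15.9 μM (TLR8) or ODN2006 5 nM (TLR9) for 22 h at 37 °C.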
(Reporter assays use an easily measured gene product as a stand-in for the process of interest.)

Take `COc1ccc(-c2[nH]c3ccc(C4CCN(C(=O)Cc5nnn[nH]5)CC4)cc3c2CC(F)(F)F)cc1OC` [Example 341, 1-(4-(2-(3,4-dimethoxyphenyl)-3-(2,2,2-trifluoroethyl)-1H-indol-5-yl)piperidin-1-yl)-2-(1H-tetrazol-5-yl)ethan-1-one]: the figures for the IC50 in test [1] and in test [2] were 5030 nM and at least 50000 nM, respectively.

On to `COc1ccc(-c2[nH]c3ccc(C4CCN(C(=O)CCc5cccnc5)CC4)cc3c2CC(F)(F)F)cc1OC` [Example 348, 1-(4-(2-(3,4-dimethoxyphenyl)-3-(2,2,2-trifluoroethyl)-1H-indol-5-yl)piperidin-1-yl)-3-(pyridin-3-yl) propan-1-one], for which the results for the half-maximal inhibitory concentration (IC50) in test [1] and in test [2] were 413 nM and 15300 nM, respectively.

Take `COc1ccc(-c2[nH]c3ccc(C4CCN(CC(=O)N5CCC(N6CCN(C)CC6)CC5)CC4)cc3c2CC(F)(F)F)cc1OC` [Example 363, 2-(4-(2-(3,4-dimethoxyphenyl)-3-(2,2,2-trifluoroethyl)-1H-indol-5-yl)piperidin-1-yl)-1-(4-(4-methylpiperazin-1-yl)piperidin-1-yl) ethan-1-one]: the values for the IC50 in test [1] and in test [2] were 8 nM and 268 nM, respectively.

For the compound `COc1ccc(-c2[nH]c3ccc(C4CCN(CC(=O)N5CCC(N6CCCCC6)CC5)CC4)cc3c2CC(F)(F)F)cc1OC` [Example 359, 1-([1,4′-bipiperidin]-1′-yl)-2-(4-(2-(3,4-dimethoxyphenyl)-3-(2,2,2-trifluoroethyl)-1H-indol-5-yl)piperidin-1-yl)ethan-1-one], the half-inhibitory concentration (IC50) (commonly the concentration that inhibits the measured activity by half) in test [1] was found to be 19 nM; in test [2], 267 nM.

Turning to `COc1ccc(-c2[nH]c3ccc(C4CCN(C(=O)CCC(F)(F)F)CC4)cc3c2CC(F)(F)F)cc1OC` [Example 350, 1-(4-(2-(3,4-dimethoxyphenyl)-3-(2,2,2-trifluoroethyl)-1H-indol-5-yl)piperidin-1-yl)-4,4,4-trifluorobutan-1-one], the IC50 in test [1] was 624 nM; in test [2] it was at least 50000 nM.

For the compound `COc1ccc(-c2[nH]c3ccc(C4CCN(CC(=O)NCCN5CCCC5)CC4)cc3c2CC(F)(F)F)cc1OC` [Example 375, 2-(4-(2-(3,4-dimethoxyphenyl)-3-(2,2,2-trifluoroethyl)-1H-indol-5-yl)piperidin-1-yl)-N-(2-(pyrrolidin-1-yl)ethyl)acetamide], the half-inhibitory concentration (IC50) in test [1] amounted to 29 nM; in test [2], 701 nM.

Regarding `COc1ccc(-c2[nH]c3ccc(C4CCN(C(=O)Cc5c[nH]c6ccccc56)CC4)cc3c2CC(F)(F)F)cc1OC` [Example 332, 1-(4-(2-(3,4-dimethoxyphenyl)-3-(2,2,2-trifluoroethyl)-1H-indol-5-yl)piperidin-1-yl)-2-(1H-indol-3-yl)ethan-1-one], the half-maximal inhibitory concentration (IC50) in test [1] is 1860 nM; in test [2], at least 50000 nM.

Take `COc1ccc(-c2[nH]c3ccc(C4CCN(C(=O)CS(C)(=O)=O)CC4)cc3c2CC(F)(F)F)cc1OC` [Example 347, 1-(4-(2-(3,4-dimethoxyphenyl)-3-(2,2,2-trifluoroethyl)-1H-indol-5-yl)piperidin-1-yl)-2-(methylsulfonyl)ethan-1-one]: the 50% inhibitory concentration (IC50) was 155 nM in test [1] and 39100 nM in test [2].

As to `COc1ccc(-c2[nH]c3ccc(C4CCN(CC(=O)NCCC5CCCN5C)CC4)cc3c2CC(F)(F)F)cc1OC` (stereo not shown) [Example 360, 2-(4-(2-(3,4-dimethoxyphenyl)-3-(2,2,2-trifluoroethyl)-1H-indol-5-yl)piperidin-1-yl)-N-(2-(1-methylpyrrolidin-2-yl)ethyl) acetamide], the 50% inhibitory concentration (IC50) in test [1] was 16 nM; in test [2] it was 392 nM.

For `COc1ccc(-c2[nH]c3ccc(C4CCN(CC(=O)NCCCCN5CCCC5)CC4)cc3c2CC(F)(F)F)cc1OC` [Example 388, 2-(4-(2-(3,4-dimethoxyphenyl)-3-(2,2,2-trifluoroethyl)-1H-indol-5-yl)piperidin-1-yl)-N-(4-(pyrrolidin-1-yl)butyl)acetamide], the half-inhibitory concentration (IC50) is 9 nM in test [1] and 288 nM in test [2].

In the case of `COc1ccc(-c2[nH]c3ccc(C4CCN(CC(=O)Nc5cc(C(C)(C)C)[nH]n5)CC4)cc3c2CC(F)(F)F)cc1OC` [Example 387, N-(5-(tert-butyl)-1H-pyrazol-3-yl)-2-(4-(2-(3,4-dimethoxyphenyl)-3-(2,2,2-trifluoroethyl)-1H-indol-5-yl)piperidin-1-yl)acetamide], the figures for the concentration for half-maximal inhibition (IC50) in test [1] and in test [2] were 994 nM and 8430 nM, respectively.

In the case of `COc1ccc(-c2[nH]c3ccc(C4CCN(C(=O)CNC[C@@H](O)CO)CC4)cc3c2C)cc1OC` [Example 405, (R)-2-((2,3-dihydroxypropyl)amino)-1-(4-(2-(3,4-dimethoxyphenyl)-3-methyl-1H-indol-5-yl)piperidin-1-yl)ethan-1-one], the IC50 was 18300 nM in test [1] and 13500 nM in test [2].

As to `COc1ccc(-c2[nH]c3ccc(C4CCNCC4F)cc3c2C(C)C)cc1OC` (single isomer, unassigned) [Example 324, 2-(3,4-dimethoxyphenyl)-5-(3-fluoropiperidin-4-yl)-3-isopropyl-1H-indole], the half-inhibitory concentration (IC50) is 51 nM in test [1] and 3530 nM in test [2].

Regarding `COc1ccc(-c2[nH]c3ccc(C4CCN(CC(=O)N5CCC[C@@H]5CO)CC4)cc3c2CC(F)(F)F)cc1OC` [Example 371, (R)-2-(4-(2-(3,4-dimethoxyphenyl)-3-(2,2,2-trifluoroethyl)-1H-indol-5-yl)piperidin-1-yl)-1-(2-(hydroxymethyl)pyrrolidin-1-yl)ethan-1-one], the results for the IC50 in test [1] and in test [2] were 79 nM and 2460 nM, respectively.

On to `COc1ccc(-c2[nH]c3ccc(C4CCN(C(=O)CCCN(C)C)CC4)cc3c2CC(F)(F)F)cc1OC` [Example 351, 1-(4-(2-(3,4-dimethoxyphenyl)-3-(2,2,2-trifluoroethyl)-1H-indol-5-yl)piperidin-1-yl)-4-(dimethylamino)butan-1-one], for which the 50% inhibitory concentration (IC50) in test [1] amounted to 17 nM; in test [2], 1560 nM.

For `COc1ccc(-c2[nH]c3ccc(C4CCN(CC(=O)N(C)C)CC4)cc3c2CC(F)F)cc1OC` [Example 400, 2-(4-(3-(2,2-difluoroethyl)-2-(3,4-dimethoxyphenyl)-1H-indol-5-yl)piperidin-1-yl)-N,N-dimethylacetamide], the IC50 is 157 nM in test [1] and 3960 nM in test [2].

As to `COc1ccc(-c2[nH]c3ccc(C4CCN(CC(=O)N5CCN(c6ccncc6)CC5)CC4)cc3c2CC(F)(F)F)cc1OC` [Example 366, 2-(4-(2-(3,4-dimethoxyphenyl)-3-(2,2,2-trifluoroethyl)-1H-indol-5-yl)piperidin-1-yl)-1-(4-(pyridin-4-yl)piperazin-1-yl) ethan-1-one], the IC50 in test [1] was determined as 4 nM; in test [2], 141 nM.

Values taken from patent publication US11180474B2 (BRISTOL-MYERS SQUIBB COMPANY, priority 2016, dated 2021).
